# From patent US9650348B2, “Triazines with suitable spacers for treatment and/or prevention of HIV infections” (Universiteit Antwerpen, priority 2012, dated 2017)
# Where two headings read alike, the source gives them in different places.
# Columns and labels:
# HIV-1 Ba-L [1] = assay: Antiviral activity in peripheral blood mononuclear cells (PBMC), Ba-L; assay type: cell-based; conditions: Human immunodeficiency virus 1, BAL, Ba-L wild type, read-out: Antiviral activity-wild type viruses EC50 PBMC Ba-L
# in vitro = assay type: cell-based; conditions: human, Cytotoxicity CC50 TZM-bI
# Excerpt: The Water Soluble Tetrazolium-1 (WST-1) Cell Proliferation Assay is a colorimetric assay for the measurement of cell proliferation and viability. The assay is based on the cleavage of the tetrazolium salt WST-1 (4-[3-(4-iodophenyl)-2-(4-nitrophenyl)-2H-5-tetrazolio]-1,3-benzene disulfonate) to a formazan dye by a complex cellular mechanism. This bioreduction is largely dependent on the glycolytic production of NAD(P)H in viable cells. Therefore, the amount of formazan dye formed correlates directly to the number of viable cells in the culture, and can be quantified by measuring the absorbance at 450 nm in a multiwell plate reader. The greater the number of viable cells, the greater the amount of formazan dye produced following the addition of WST-1. Cytotoxicity of each compound was evaluated using this WST-1 viability assay, according to the manufacturer's instructions (Roche, Vilvoorde, Belgium).
# Briefly, ten thousand TZM-bl cells were seeded in a 96-well plate and cultured for 2 days in the presence of a serial dilution of compound. After this 48 h exposure, Cell Proliferation Reagent, WST-1, was added and absorbance at 450 nm was quantified after 90 min using a microplate reader (BioRad, Tokio, Japan). Each compound was tested in three replicate wells and in at least two independent experiments.
# (§1) The target compounds are evaluated for their anti-HIV-1 activity and cytotoxicity. In a primary screen, the anti-HIV activity against the laboratory strain Ba-L and against a primary subtype C isolate was determined in the TZM-bl cell line. Cellular toxicity on TZM-bl cells was evaluated using WST-1. […] In addition, the activity against NNRTI-resistant viruses (V106A, Y181C, L100I+K103N, L100I+E138K+T369I and K101E+K103N+V108VI+V179M+Y181C+E138Q) was tested. Diarylpyrimidines (DAPY) TMC120, TMC125 and TMC278 were used as reference compounds.
# Ba-L V106A = assay: Antiviral activity, NNRTI-resistant virus V106A; assay type: cell-based, HIV-1; conditions: for FC (V106A): Ba-L V106A; for EC50: Human immunodeficiency virus 1, BAL, read-out: Antiviral activity-NNRTI-resistant viruses EC50 Ba-L V106A
# Description: as §1
# HIV-1 BaL = assay: TZM-bl antiviral assay, wild type HIV-1 Ba-L; assay type: cell-based; conditions: Human immunodeficiency virus 1, BAL, read-out: Antiviral activity-wild type viruses EC50 TZM-bI Ba-L
# Description: (§2) The JC53-BL cell line, also known as the TZM-bl cell line (NIH AIDS Research and Reference Reagent Program, Germantown, USA), was used for the evaluation of anti-HIV activity. TZM-bl cells were cultured in Dulbecco's […] (DMEM) (Lonza) containing 10% heat-inactivated FBS and 50 μg gentamycin/mL at 37° C. in a humidified 5% CO2, 95% air environment. Twice a week the cells were treated with 0.25% trypsin-1 mM EDTA (Lonza) for 10 minutes. The resulting cell suspension was washed with an equivalent amount of TZM-bl medium and subsequently seeded in a T75 culture flask (Greiner Bio-One, Germany) at 10^6 cells in 20 mL medium.
# (§3) The antiviral activity of the newly designed compounds was measured by pre-incubating ten thousand TZM-bl cells (at 10^5 cells/mL in culture medium supplemented with 30 μg/mL DEAE dextran) in a 96-well plate for 30 minutes at 37° C., 5% CO2 in the presence or absence of serial dilutions of the respective compound. Subsequently, 200 TCID50 of HIV-1 BaL was added to each well and cultures were incubated for 48 hours before quantifying luciferase activity, using a TriStar LB941 luminometer (Berthold Technologies GmbH & Co. KG, Bad Wildbad, Germany). Each condition was evaluated in triplicate wells and in at least two independent experiments. The antiviral activity of the compound was expressed as the percentage of viral inhibition compared to the untreated controls and subsequently plotted against the compound concentration.
# as §1
# [2] = test system: Ba-L K101E + K103N + V108VI + V179M + Y181C + E138Q; assay: Antiviral activity, NNRTI-resistant virus K101E+K103N+V108VI+V179M+Y181C+E138Q; assay type: cell-based, HIV-1; conditions: for FC (*): Ba-L, * = K101E + K103N + V108VI + V179M + Y181C + E138Q; for EC50: Human immunodeficiency virus 1, BAL, read-out: Antiviral activity-NNRTI-resistant viruses EC50 Ba-L *
# Description: (§4) The target compounds are evaluated for their anti-HIV-1 activity and cytotoxicity. In a primary screen, the anti-HIV activity against the laboratory strain Ba-L and against a primary subtype C isolate was determined in the TZM-bl cell line. Cellular toxicity on TZM-bl cells was evaluated using WST-1. Based on the primary screening results, the target compound was further evaluated for anti-HIV activity in different primary cells, including peripheral blood mononuclear cells, dendritic cells and CD4+ T lymphocytes. In addition, the activity against NNRTI-resistant viruses (V106A, Y181C, L100I+K103N, L100I+E138K+T369I and K101E+K103N+V108VI+V179M+Y181C+E138Q) was tested. Diarylpyrimidines (DAPY) TMC120, TMC125 and TMC278 were used as reference compounds.
# VI829 L100I+E138K+T369I = assay: Antiviral activity, NNRTI-resistant virus L100I+E138K+T369I; assay type: cell-based, HIV-1; conditions: VI829, ** = L1001 + E138K + T3691
# Description: as §4
# VI829 = assay: TZM-bl antiviral assay, wild type VI829 (primary subtype C isolate); assay type: cell-based, HIV-1; conditions: read-out: Antiviral activity-wild type viruses EC50 TZM-bI VI829
# Description: as §2, §3, §1
# HIV-1 Ba-L [3] = assay: Antiviral activity in dendritic cells / CD4+ T lymphocytes (DC/T4), Ba-L; assay type: cell-based; conditions: Human immunodeficiency virus 1, BAL; DC/T4, Ba-L wild type; read-out: Antiviral activity-wild type viruses EC50 DC/T4 Ba-L
# VI829 Y181C = assay: Antiviral activity, NNRTI-resistant virus Y181C; assay type: cell-based, HIV-1; conditions: for EC50: Human immunodeficiency virus 1, read-out: Antiviral activity-NNRTI-resistant viruses EC50 VI829 Y181C; for FC (Y181C): VI829 Y181C
# Description: as §1
# VI829 L100I+K103N = assay: Antiviral activity, NNRTI-resistant virus L100I+K103N; assay type: cell-based, HIV-1; conditions: for EC50: Human immunodeficiency virus 1, read-out: Antiviral activity-NNRTI-resistant viruses EC50 VI829 L100I+K103N; for FC (L100I+K103N): VI829 L100I+K103N
# Description: as §1
# [4] = Human immunodeficiency virus 1, TZM-bl cells, VI829 wild type
Structure (SMILES),EC50 (HIV-1 Ba-L [1]) [nM],CC50 at 48 h (in vitro) [nM],FC (V106A) (Ba-L V106A),EC50 (Ba-L V106A) [nM],"EC50 (HIV-1 BaL; TZM-bl cells, Ba-L wild type) [nM]",FC (*) [2],EC50 [2] [nM],FC (**) (VI829 L100I+E138K+T369I),EC50 (VI829; [4]) [nM],EC50 (HIV-1 Ba-L [3]) [nM],EC50 (VI829 Y181C) [nM],FC (Y181C) (VI829 Y181C),EC50 (VI829 L100I+K103N) [nM],FC (L100I+K103N) (VI829 L100I+K103N),EC50 (HIV-1 BaL; TZM-bl) [nM],"EC50 (VI829; Human immunodeficiency virus 1, TZM-bl) [nM]"
"Cc1cc(C=CC#N)cc(C)c1Nc1nc(N)nc(Nc2ccc(C#N)cc2)n1 [T1, 4-(4-amino-6-(4-(2-cyanovinyl)-2,6-dimethylphenylamino)-1,3,5-triazin-2-ylamino)benzonitrile]",1.8,34600,1,1.7,1.3,18,22.8,210,1.1,0.7,4,3,15,10,,
"CNc1nc(Nc2ccc(C#N)cc2)nc(Nc2c(C)cc(C=CC#N)cc2C)n1 [T4, 4-((4-((4-(2-cyanovinyl)-2,6-dimethylphenyl)amino)-6-(methylamino)-1,3,5-triazin-2-yl)amino)benzonitrile]",,5910,,,1.7,39,66,,,,,,,,,
"Cc1cc(C=CC#N)cc(C)c1Nc1nc(Nc2ccc(C#N)cc2)nc(N(C)C)n1 [T5, 4-((4-((4-(2-cyanovinyl)-2,6-dimethylphenyl)amino)-6-(dimethylamino)-1,3,5-triazin-2-yl)amino)benzonitrile]",,8060,2,12,5.8,78,455,31,4.4,,27,6,74,17,,
"Cc1cc(C=CC#N)cc(C)c1Nc1nc(Nc2ccc(C#N)cc2)nc(N2CCCCC2)n1 [T7, 4-((4-((4-(2-cyanovinyl)-2,6-dimethylphenyl)amino)-6-(piperidin-1-yl)-1,3,5-triazin-2-yl)amino)benzonitrile]",,> 100000,7,126,18,>55,> 1000,>50,19,,221,12,> 1000,>50,,
"Cc1cc(C=CC#N)cc(C)c1Nc1nc(Nc2ccc(C#N)cc2)nc(N2CCOCC2)n1 [T8, 4-((4-((4-(2-cyanovinyl)-2,6-dimethylphenyl)amino)-6-morpholino-1,3,5-triazin-2-yl)amino)benzonitrile]",,11400,,,7.1,89,634,,,,,,,,,
"Cc1cc(C=CC#N)cc(C)c1Nc1nc(Nc2ccc(C#N)cc2)nc(N2CCN(C)CC2)n1 [T9, 4-((4-((4-(2-cyanovinyl)-2,6-dimethylphenyl)amino)-6-(4-methylpiperazin-1-yl)-1,3,5-triazin-2-yl)amino)benzonitrile]",,21200,,,8.5,37,316,,,,,,,,,
"N#CC=Cc1cc(F)c(Nc2nc(N)nc(Nc3ccc(C#N)cc3)n2)c(F)c1 [T10, 4-((4-amino-6-((4-(2-cyanovinyl)-2,6-difluorophenyl)amino)-1,3,5-triazin-2-yl)amino)benzonitrile]",,21400,,,0.53,1113,590,,,,,,,,,
"Cc1cc(C=CC#N)cc(C)c1Oc1nc(N)nc(Nc2ccc(C#N)cc2)n1 [T11, 4-((4-amino-6-(4-(2-cyanovinyl)-2,6-dimethylphenoxy)-1,3,5-triazin-2-yl)amino)benzonitrile]",,19100,2,2.5,1.1,56,62,167,0.64,,4.1,6,17,27,,
"CNc1nc(Nc2ccc(C#N)cc2)nc(Oc2c(C)cc(C=CC#N)cc2C)n1 [T12, 4-((4-(4-(2-cyanovinyl)-2,6-dimethylphenoxy)-6-(methylamino)-1,3,5-triazin-2-yl)amino)benzonitrile]",,20000,4,6.5,1.6,48,77,44,1.6,,7.4,5,24,15,,
"Cc1cc(C=CC#N)cc(C)c1Oc1nc(Nc2ccc(C#N)cc2)nc(N(C)C)n1 [T13, 4-((4-(4-(2-cyanovinyl)-2,6-dimethylphenoxy)-6-(dimethylamino)-1,3,5-triazin-2-yl)amino)benzonitrile]",,7850,,,3.4,231,786,,,,,,,,,
"Cc1cc(C=CC#N)cc(C)c1Oc1nc(Nc2ccc(C#N)cc2)nc(N2CCCCC2)n1 [T14, 4-((4-(4-(2-cyanovinyl)-2,6-dimethylphenoxy)-6-(piperidin-1-yl)-1,3,5-triazin-2-yl)amino)benzonitrile]",,> 100000,,,21,>47,> 1000,,,,,,,,,
"Cc1cc(C#N)cc(C)c1Oc1nc(Nc2ccc(C#N)cc2)nc(N)c1Br [TMC125, Etravirine, reference compound]",5.9,,1,1.6,,51,76,62,,1.8,7.6,5,14,9,1.5,1.5
